# Reference: ChEMBL document CHEMBL3774345, “Synthesis of new diarylamides with pyrimidinyl pyridine scaffold and evaluation of their anti-proliferative effect on cancer cell lines” (Bioorg Med Chem Lett, 2016)
# What was measured:
# U-251 = experiment: Cytotoxicity against human U251 cells after 24 hrs by SRB assay; assay type: functional; details: U-251, 24 h
# MCF7 [1] = experiment: Cytotoxicity against human MCF7 cells assessed as cell growth at 10^-4 M after 24 hrs by SRB assay; assay type: functional; details: MCF7, 24 h, read-out: Activity
# M14 = experiment: Cytotoxicity against human M14 cells assessed as cell growth at 10^-5 M after 24 hrs by SRB assay; assay type: functional; details: M14, 24 h, read-out: Activity
# CCRF-CEM = experiment: Cytotoxicity against human CCRF-CEM cells assessed as cell growth at 10^-8 M after 24 hrs by SRB assay; assay type: functional; details: read-out: Activity
# [2] = Cytotoxicity against human RXF393 cells assessed as cell growth at 10^-6 M after 24 hrs by SRB assay; assay type: functional; details: RXF 393, 24 h, read-out: Activity
# [3] = Cytotoxicity against human DU145 cells assessed as cell growth at 10^-4 M after 24 hrs by SRB assay; assay type: functional; details: DU-145, 24 h, read-out: Activity
# [4] = Cytotoxicity against human LOXIMVI cells assessed as cell growth at 10^-5 M after 24 hrs by SRB assay; assay type: functional; details: LOX IMVI, read-out: Activity
# [5] = Cytotoxicity against human OVCAR3 cells assessed as cell growth at 10^-7 M after 24 hrs by SRB assay; assay type: functional; details: OVCAR-3, 24 h, read-out: Activity
# [6] = Cytotoxicity against human OVCAR8 cells assessed as cell growth at 10^-8 M after 24 hrs by SRB assay; assay type: functional; details: OVCAR-8, 24 h, read-out: Activity
# [7] = Cytotoxicity against human OVCAR3 cells after 24 hrs by SRB assay; assay type: functional; details: OVCAR-3, 24 h
# [8] = Cytotoxicity against human Caki1 cells assessed as cell growth at 10^-8 M after 24 hrs by SRB assay; assay type: functional; details: CAKI-1, 24 h, read-out: Activity
# [9] = Cytotoxicity against human SF539 cells assessed as cell growth at 10^-4 M after 24 hrs by SRB assay; assay type: functional; details: SF-539, 24 h, read-out: Activity
# MDA-MB-231 = experiment: Cytotoxicity against human MDA-MB-231 cells assessed as cell growth at 10^-7 M after 24 hrs by SRB assay; assay type: functional; details: MDA-MB-231, 24 h, read-out: Activity
# [10] = Cytotoxicity against human RXF393 cells assessed as cell growth at 10^-4 M after 24 hrs by SRB assay; assay type: functional; details: RXF 393, 24 h, read-out: Activity
# [11] = Cytotoxicity against human UACC257 cells assessed as cell growth at 10^-6 M after 24 hrs by SRB assay; assay type: functional; details: UACC-257, 24 h, read-out: Activity
# [12] = Cytotoxicity against human HL-60(TB) cells assessed as cell growth at 10^-7 M after 24 hrs by SRB assay; assay type: functional; details: HL-60, 24 h, read-out: Activity
# [13] = Cytotoxicity against human HCT116 cells assessed as cell growth at 10^-5 M after 24 hrs by SRB assay; assay type: functional; details: HCT-116, 24 h, read-out: Activity
# [14] = Cytotoxicity against human MOLT4 cells assessed as cell growth at 10^-7 M after 24 hrs by SRB assay; assay type: functional; details: MOLT-4, 24 h, read-out: Activity
# [15] = Cytotoxicity against human RPMI8226 cells assessed as cell growth at 10^-7 M after 24 hrs by SRB assay; assay type: functional; details: RPMI-8226, 24 h, read-out: Activity
# [16] = Cytotoxicity against human HOP62 cells assessed as cell growth at 10^-6 M after 24 hrs by SRB assay; assay type: functional; details: HOP-62, 24 h, read-out: Activity
# [17] = Cytotoxicity against human HCC2998 cells assessed as cell growth at 10^-5 M after 24 hrs by SRB assay; assay type: functional; details: HCC 2998, 24 h, read-out: Activity
# [18] = Cytotoxicity against human DU145 cells assessed as cell growth at 10^-8 M after 24 hrs by SRB assay; assay type: functional; details: DU-145, 24 h, read-out: Activity
# NCI-H322M = experiment: Cytotoxicity against human NCI-H322M cells assessed as cell growth at 10^-4 M after 24 hrs by SRB assay; assay type: functional; details: read-out: Activity
# [19] = Cytotoxicity against human SF268 cells assessed as cell growth at 10^-4 M after 24 hrs by SRB assay; assay type: functional; details: SF-268, 24 h, read-out: Activity
# [20] = Cytotoxicity against human TK10 cells assessed as cell growth at 10^-5 M after 24 hrs by SRB assay; assay type: functional; details: TK-10, 24 h, read-out: Activity
# Malme-3M = experiment: Cytotoxicity against human MALME-3M cells assessed as cell growth at 10^-5 M after 24 hrs by SRB assay; assay type: functional; details: read-out: Activity
# ACHN = experiment: Cytotoxicity against human ACHN cells assessed as cell growth at 10^-4 M after 24 hrs by SRB assay; assay type: functional; details: read-out: Activity
# NCI-H460 [21] = experiment: Cytotoxicity against human NCI-H460 cells assessed as cell growth at 10^-6 M after 24 hrs by SRB assay; assay type: functional; details: NCI-H460, 24 h, read-out: Activity
# SR = experiment: Cytotoxicity against human SR cells assessed as cell growth at 10^-5 M after 24 hrs by SRB assay; assay type: functional; details: read-out: Activity
# [22] = Cytotoxicity against human HOP92 cells assessed as cell growth at 10^-6 M after 24 hrs by SRB assay; assay type: functional; details: HOP-92, 24 h, read-out: Activity
# MCF7 [23] = experiment: Cytotoxicity against human MCF7 cells after 24 hrs by SRB assay; assay type: functional; details: MCF7, 24 h
# [24] = Cytotoxicity against human HCT15 cells after 24 hrs by SRB assay; assay type: functional, cell-based; details: HCT-15, 24 h
# NCI-H460 [25] = experiment: Cytotoxicity against human NCI-H460 cells assessed as cell growth at 10^-4 M after 24 hrs by SRB assay; assay type: functional; details: NCI-H460, 24 h, read-out: Activity
# [26] = Cytotoxicity against human HCC2998 cells assessed as cell growth at 10^-6 M after 24 hrs by SRB assay; assay type: functional; details: HCC 2998, 24 h, read-out: Activity
# [27] = Cytotoxicity against human HCC2998 cells assessed as cell growth at 10^-7 M after 24 hrs by SRB assay; assay type: functional; details: HCC 2998, 24 h, read-out: Activity
# [28] = Cytotoxicity against human SNB19 cells assessed as cell growth at 10^-8 M after 24 hrs by SRB assay; assay type: functional; details: SNB-19, 24 h, read-out: Activity
# [29] = Cytotoxicity against human LOXIMVI cells assessed as cell growth at 10^-7 M after 24 hrs by SRB assay; assay type: functional; details: LOX IMVI, read-out: Activity
# [30] = read-out: LC50 (the source's name)
# [31] = read-out: pLC50 (the source's name) (converted)
compound,measurement,setting,value
O=C(Nc1cc(-c2cccnc2)nc(NCCCN2CCOCC2)n1)c1cc(Br)cc(C(F)(F)F)c1,GI50,U-251; read-out: GI50,2.05 µM
same,CC50,U-251; [30],9.04 µM
same,TGI,U-251; read-out: TGI,4.3 µM
same,GI50,U-251; read-out: pGI50 (converted),2.04 µM
same,CC50,U-251; [31],9.12 µM
same,TGI,U-251; read-out: pTGI (converted),4.27 µM
same,growth at 100 µM,MCF7 [1],-75%
same,growth at 10 µM,M14,-80%
same,growth at 0.01 µM,CCRF-CEM,100%
same,growth at 1 µM,[2],92%
same,growth at 100 µM,[3],-100%
same,growth at 10 µM,[4],-93%
same,growth at 0.1 µM,[5],102%
same,growth at 0.01 µM,[6],106%
same,GI50,[7]; read-out: GI50,3.7 µM
same,CC50,[7]; [30],35.8 µM
same,TGI,[7]; read-out: TGI,12.8 µM
same,GI50,[7]; read-out: pGI50 (converted),3.72 µM
same,CC50,[7]; [31],35.5 µM
same,TGI,[7]; read-out: pTGI (converted),12.9 µM
same,growth at 0.01 µM,[8],99%
same,growth at 100 µM,[9],-85%
same,growth at 0.1 µM,MDA-MB-231,87%
same,growth at 100 µM,[10],-86%
same,growth at 1 µM,[11],113%
same,growth at 0.1 µM,[12],96%
same,growth at 10 µM,[13],-44%
same,growth at 0.1 µM,[14],95%
same,growth at 0.1 µM,[15],104%
same,growth at 1 µM,[16],88%
same,growth at 10 µM,[17],-77%
same,growth at 0.01 µM,[18],103%
same,growth at 100 µM,NCI-H322M,-90%
same,growth at 100 µM,[19],-88%
same,growth at 10 µM,[20],34%
same,growth at 10 µM,Malme-3M,-72%
same,growth at 100 µM,ACHN,-79%
same,growth at 1 µM,NCI-H460 [21],99%
same,growth at 10 µM,SR,1%
same,growth at 1 µM,[22],75%
same,GI50,MCF7 [23]; read-out: GI50,2.17 µM
same,CC50,MCF7 [23]; [30],44.8 µM
same,TGI,MCF7 [23]; read-out: TGI,9.22 µM
same,GI50,MCF7 [23]; read-out: pGI50 (converted),2.24 µM
same,CC50,MCF7 [23]; [31],44.7 µM
same,TGI,MCF7 [23]; read-out: pTGI (converted),9.12 µM
same,IC50,[24],1.92 µM
same,GI50,[24]; read-out: GI50,1.92 µM
same,CC50,[24]; [30],19.3 µM
same,TGI,[24]; read-out: TGI,5.28 µM
same,GI50,[24]; read-out: pGI50 (converted),1.91 µM
same,CC50,[24]; [31],19.5 µM
same,TGI,[24]; read-out: pTGI,5.25 µM
same,growth at 100 µM,NCI-H460 [25],-75%
same,growth at 1 µM,[26],92%
same,growth at 0.1 µM,[27],100%
same,growth at 0.01 µM,[28],97%
same,growth at 0.1 µM,[29],92%
